The target of test [1] is T1, Growth factor receptor-bound protein 2 (Homo sapiens, UniProt P62993). The test can be described thus: Binding affinity against Growth factor receptor bound protein 2 using ELISA assay. (In an ELISA, binding on a coated surface is turned into a signal by an enzyme label.)
The target in test [2] is T1, Growth factor receptor-bound protein 2. The test can be described thus: Inhibitory activity against Growth factor receptor bound protein 2 using ELISA assay.

*1 amine or outer side, *2 acyl side, *3 side chain or, on linkers, in order; H or OH if unused. Where a SMILES comes first, the peptide text is derived from it. Bridges are numbered along the chain shown (N, C = ends). [ ]: non-standard residue; d: D form. Gla = N[C@@H](CC(C(=O)O)C(=O)O)C(=O)O; X1 = O=C([C@]1(N[*:1])CC2CCC1C2)[*:2] Some results are limits rather than exact numbers.

T1 sequence (P62993 whole entry): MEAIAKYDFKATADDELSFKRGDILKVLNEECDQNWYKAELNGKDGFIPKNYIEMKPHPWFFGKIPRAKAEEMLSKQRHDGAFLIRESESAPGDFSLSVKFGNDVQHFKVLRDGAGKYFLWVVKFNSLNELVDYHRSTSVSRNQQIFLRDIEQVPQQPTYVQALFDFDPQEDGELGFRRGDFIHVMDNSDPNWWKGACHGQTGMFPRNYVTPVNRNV

One may read the IC50 as the concentration at which inhibition is half-maximal. A high value points to lower potency. For `CSCC[C@H]1NC(=O)CNC(=O)[C@@H](C(C)C)NC(=O)[C@H](CC(N)=O)NC(=O)[C@@H](CCC(=O)O)NC(=O)[C@H](Cc2ccc(O)cc2)NC(=O)[C@@H](CC(C)C)NC(=O)[C@H](CC(C(=O)O)C(=O)O)NC(=O)CSC[C@@H](C(N)=O)NC(=O)[C@H](Cc2ccc(O)cc2)NC1=O`, the 50% inhibitory concentration (IC50) in test [1] was 991 nM. Same read-out and setting: the figure for `CC(C)C[C@H]1NC(=O)[C@H](CC(C(=O)O)C(=O)O)NC(=O)CSC[C@@H](C(N)=O)NC(=O)[C@H](Cc2ccc(O)cc2)NC(=O)[C@@H](Cc2ccc(-c3ccccc3)cc2)NC(=O)CNC(=O)[C@@H](C(C)C)NC(=O)[C@H](CC(N)=O)NC(=O)C2(CCCCC2)NC(=O)[C@H](Cc2ccc(O)cc2)NC1=O` is 502 nM; for `CSCC[C@H]1NC(=O)CNC(=O)[C@@H](C(C)C)NC(=O)[C@H](CC(N)=O)NC(=O)[C@@H](CCCC(=O)O)NC(=O)[C@H](Cc2ccc(O)cc2)NC(=O)[C@@H](CC(C)C)NC(=O)[C@H](CC(C(=O)O)C(=O)O)NC(=O)CSC[C@@H](C(N)=O)NC(=O)[C@H](Cc2ccc(O)cc2)NC1=O` it is 1510 nM. For the compound `CSCC[C@H]1NC(=O)CNC(=O)[C@@H](C(C)C)NC(=O)[C@H](CC(N)=O)NC(=O)C2(CCCCC2)NC(=O)[C@H](Cc2ccc(O)cc2)NC(=O)[C@@H](CC(C)C)NC(=O)[C@H](CC(C(=O)O)C(=O)O)NC(=O)CSC[C@@H](C(N)=O)NC(=O)[C@H](Cc2ccc(O)cc2)NC1=O`, the IC50 in test [1] worked out at 525 nM. For `CC(C)C[C@H]1NC(=O)[C@H](CC(C(=O)O)C(=O)O)NC(=O)CSC[C@@H](C(N)=O)NC(=O)[C@H](Cc2ccc(O)cc2)NC(=O)[C@@H](Cc2ccc3ccccc3c2)NC(=O)CNC(=O)[C@@H](C(C)C)NC(=O)[C@H](CC(N)=O)NC(=O)C2(CCCCC2)NC(=O)[C@H](Cc2ccc(O)cc2)NC1=O`, the IC50 in test [1] turned out to be 271 nM. The same measure, in the same setting: the figure for `CC(C)C[C@H]1NC(=O)[C@H](CC(C(=O)O)C(=O)O)NC(=O)CSC[C@@H](C(N)=O)NC(=O)[C@H](Cc2ccc(O)cc2)NC(=O)[C@@H](Cc2c(F)c(F)c(F)c(F)c2F)NC(=O)CNC(=O)[C@@H](C(C)C)NC(=O)[C@H](CC(N)=O)NC(=O)C2(CCCCC2)NC(=O)[C@H](Cc2ccc(O)cc2)NC1=O` is 238 nM.

Regarding `CC(C)C[C@H]1NC(=O)[C@H](CC(C(=O)O)C(=O)O)NC(=O)CSC[C@@H](C(N)=O)NC(=O)[C@H](Cc2ccc(O)cc2)NC(=O)[C@@H](CC(C)(C)C)NC(=O)CNC(=O)[C@@H](C(C)C)NC(=O)[C@H](CC(N)=O)NC(=O)C2(CCCCC2)NC(=O)[C@H](Cc2ccc(O)cc2)NC1=O`, the concentration for half-maximal inhibition (IC50) in test [1] was determined as 244 nM. Consider `CSCC[C@@H]1NC(=O)CNC(=O)[C@H](C(C)C)NC(=O)[C@H](CC(N)=O)NC(=O)[C@H](CCC(=O)O)NC(=O)[C@H](Cc2ccc(O)cc2)NC(=O)[C@H](CC(C)C)NC(=O)[C@H](CCC(=O)O)NC(=O)CSC[C@@H](C(N)=O)NC(=O)[C@H](Cc2ccc(O)cc2)NC1=O` (HELM PEPTIDE1{[O=C(C[*:3])[*:2]].E.L.Y.E.N.V.G.M.Y.C.[am]}$PEPTIDE1,PEPTIDE1,1:R3-11:R3$$$V2.0), for which the IC50 in test [2] was 20000 nM; in test [1], above 100000 nM. On to `CSCC[C@@H]1NC(=O)CNC(=O)[C@H](C(C)C)NC(=O)[C@H](CC(N)=O)NC(=O)[C@@H]2CCCN2C(=O)[C@H](Cc2ccc(O)cc2)NC(=O)[C@H](CC(C)C)NC(=O)[C@H](CCC(=O)O)NC(=O)CSC[C@@H](C(N)=O)NC(=O)[C@H](Cc2ccc(O)cc2)NC1=O` (HELM PEPTIDE1{[O=C(C[*:3])[*:2]].E.L.Y.P.N.V.G.M.Y.C.[am]}$PEPTIDE1,PEPTIDE1,1:R3-11:R3$$$V2.0), for which the IC50 in test [1] was 7830 nM. In turn, `CC(C)C[C@H]1NC(=O)[C@H](CC(C(=O)O)C(=O)O)NC(=O)C[S+]([O-])C[C@@H](C(N)=O)NC(=O)[C@H](Cc2ccc(O)cc2)NC(=O)[C@@H](CC(C)(C)C)NC(=O)CNC(=O)[C@@H](C(C)C)NC(=O)[C@H](CC(N)=O)NC(=O)C2(CCCCC2)NC(=O)[C@H](Cc2ccc(O)cc2)NC1=O` (stereo in doubt; 12) registered an IC50 in test [1] of 74.6 nM.

In turn, `CC(C)C[C@H]1NC(=O)[C@H](CC(C(=O)O)C(=O)O)NC(=O)C[S+]([O-])C[C@@H](C(N)=O)NC(=O)[C@H](Cc2ccc(O)cc2)NC(=O)[C@@H](CC(C)(C)C)NC(=O)CNC(=O)[C@@H](C(C)C)NC(=O)[C@H](CC(N)=O)NC(=O)C2(CCCCC2)NC(=O)[C@H](Cc2ccc(O)cc2)NC1=O` (stereo in doubt; 13) showed an IC50 in test [1] of 747 nM. For `CC(C)C[C@H]1NC(=O)[C@H](CC(C(=O)O)C(=O)O)NC(=O)C[S+]([O-])C[C@@H](C(N)=O)NC(=O)[C@H](Cc2ccc(O)cc2)NC(=O)[C@@H](Cc2ccc3ccccc3c2)NC(=O)CNC(=O)[C@@H](C(C)C)NC(=O)[C@H](CC(N)=O)NC(=O)C2(CCCCC2)NC(=O)[C@H](Cc2ccc(O)cc2)NC1=O` (stereo in doubt; 14), the IC50 in test [1] amounted to 314 nM.

`CC(C)C[C@H]1NC(=O)[C@H](CC(C(=O)O)C(=O)O)NC(=O)C[S+]([O-])C[C@@H](C(N)=O)NC(=O)[C@H](Cc2ccc(O)cc2)NC(=O)[C@@H](Cc2ccc3ccccc3c2)NC(=O)CNC(=O)[C@@H](C(C)C)NC(=O)[C@H](CC(N)=O)NC(=O)C2(CCCCC2)NC(=O)[C@H](Cc2ccc(O)cc2)NC1=O` (stereo in doubt; 15): the half-inhibitory concentration (IC50) in test [1] is 4860 nM.

Turning to `CC(C)C[C@H]1NC(=O)[C@H](CC(C(=O)O)C(=O)O)NC(=O)C[S+]([O-])C[C@@H](C(N)=O)NC(=O)[C@H](Cc2ccc(O)cc2)NC(=O)[C@@H](C2CCCCC2)NC(=O)CNC(=O)[C@@H](C(C)C)NC(=O)[C@H](CC(N)=O)NC(=O)C2(CCCCC2)NC(=O)[C@H](Cc2ccc(O)cc2)NC1=O` (stereo in doubt; 16), the IC50 in test [1] worked out at 149 nM. Still for that read-out and setting: the same measure for `CC(C)C[C@H]1NC(=O)[C@H](CC(C(=O)O)C(=O)O)NC(=O)C[S+]([O-])C[C@@H](C(N)=O)NC(=O)[C@H](Cc2ccc(O)cc2)NC(=O)[C@@H](C2CCCCC2)NC(=O)CNC(=O)[C@@H](C(C)C)NC(=O)[C@H](CC(N)=O)NC(=O)C2(CCCCC2)NC(=O)[C@H](Cc2ccc(O)cc2)NC1=O` (stereo in doubt; 17): 1410 nM; for `CSCC[C@@H]1NC(=O)CNC(=O)[C@H](C(C)C)NC(=O)[C@H](CC(N)=O)NC(=O)[C@@]2(CC3CCC2C3)NC(=O)[C@H](Cc2ccc(O)cc2)NC(=O)[C@H](CC(C)C)NC(=O)[C@H](CC(C(=O)O)C(=O)O)NC(=O)CSC[C@@H](C(N)=O)NC(=O)[C@H](Cc2ccc(O)cc2)NC1=O` (some centres not stated) ({CH2CO}-[Gla]LY[X1]NVGMYC-NH2; thioether N-10): 730 nM.

Source of the values: ChEMBL document CHEMBL1136083, “Potent Grb2-SH2 domain antagonists not relying on phosphotyrosine mimics” (Bioorg Med Chem Lett, 2003).
